In PubChem BioAssay (NCI):
Where “and” joins values, the source holds several entries; their conditions need not be identical. Equal values may be shown once.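 Values below derive from 48-hour exposures of cells grown in 96-well plates, with endpoints linearly interpolated between the two concentrations bracketing the appropriate inhibition level. Abbreviation: GI50, concentration required for 50% inhibition of growth. TGI marks complete inhibition of growth.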

Experiments:
Experiment in all cases: NCI-60 cell line screen, 48 h
DU-145 prostate = tested on: DU-145 prostate
LOX IMVI melanoma = tested on: LOX IMVI melanoma
MALME-3M melanoma = tested on: MALME-3M melanoma
UACC-62 melanoma = tested on: UACC-62 melanoma
HT29 colon = tested on: HT29 colon
TK-10 renal = tested on: TK-10 renal
HCC-2998 colon = tested on: HCC-2998 colon
NCI-H460 lung = tested on: NCI-H460 lung
SF-268 CNS = tested on: SF-268 CNS
NCI-H23 lung = tested on: NCI-H23 lung

SMILES	TGI (DU-145 prostate)	TGI (LOX IMVI melanoma)	TGI (MALME-3M melanoma)	TGI (UACC-62 melanoma)	TGI (HT29 colon)	TGI (TK-10 renal)	TGI (HCC-2998 colon)	TGI (NCI-H460 lung)	TGI (SF-268 CNS)	TGI (NCI-H23 lung)	GI50 (DU-145 prostate)	GI50 (LOX IMVI melanoma)	GI50 (MALME-3M melanoma)	GI50 (UACC-62 melanoma)	GI50 (HT29 colon)	GI50 (TK-10 renal)	GI50 (HCC-2998 colon)	GI50 (NCI-H460 lung)	GI50 (SF-268 CNS)	GI50 (NCI-H23 lung)
CC(=O)C1=C(O)/C(=C\c2ccco2)OC1=O	> 10 µM	> 10 µM	> 10 µM	> 10 µM	> 10 µM	> 10 µM	> 10 µM	> 10 µM	> 10 µM	> 10 µM										
O=C(Nc1ccccc1)Nc1ccccc1CNc1nc(Nc2ccc(OCCN3CCCC3)cc2)ncc1Cl	12.4 µM	2.11 µM	12.7 µM	10.9 µM	8.39 µM	15 µM	11.3 µM	2.22 µM	16.6 µM	19.5 µM	5.55 µM	1.02 µM	5.51 µM	3.83 µM	1.66 µM	4.36 µM	5.23 µM	1.07 µM	6.2 µM	7.29 µM
CN1c2ccccc2C(=O)Nc2cnc(Cl)nc21	> 100 µM	> 100 µM	> 100 µM	> 100 µM	> 100 µM	> 100 µM	> 100 µM			> 100 µM										
CCCCCCN(CCCCCC)CC(O)c1cccc2ccc(Cl)cc12 (configuration not stated)	25 µM	15.6 µM	22.4 µM	21.2 µM	18.5 µM	25.4 µM	8.04 µM	19.6 µM	27.1 µM	19.5 µM	11.6 µM	4.14 µM	9.43 µM	8.11 µM	3.86 µM	12.4 µM	2.96 µM	6.63 µM	12.4 µM	5.42 µM
C=C(C)[C@]12CC(C)C34OC(/C=C\C=C\CCCCCCCCC)(O[C@@H]1[C@@H]3[C@@H]1O[C@]1(CO)[C@@H](O)[C@]1(O)C(=O)C(C)=C[C@@H]41)O2 (some centres not stated)	22.1 µM	3.88 µM	23.1 µM	24 µM	8.26 µM	19.1 µM		16 µM	28.5 µM	29.2 µM		1.48 µM	< 0.0001 µM				< 0.0001 µM	< 0.0001 µM		
CC(C)(C)NCCC(O)c1cc(C(F)(F)F)nc2c(C(F)(F)F)cccc12 (configuration not stated)	6.17 µM	5.31 µM	27.2 µM	25.3 µM	20.1 µM	24.8 µM	8.73 µM	16.8 µM	24.2 µM	9.74 µM										
COc1cc(OC)cc(N2CCN(C(=O)Nc3nc4cc(F)ccc4nc3OC)CC2)c1	> 100 µM and 34.9 µM	17.6 µM and 13.6 µM	46.8 µM and 44.8 µM	27.2 µM and 21.9 µM		71.6 µM and 63.8 µM	31.4 µM and 27.1 µM	25.3 µM and 14.9 µM	75.7 µM and 34.1 µM	52.2 µM and 34.5 µM	0.0438 µM and 0.0429 µM and 0.0403 µM	0.0506 µM and 0.0658 µM and 0.0352 µM	5.45 µM and 12.5 µM	< 0.01 µM and 0.0142 µM	0.0343 µM and 0.0372 µM and 0.0306 µM	16.6 µM and 10.3 µM	0.0445 µM and 0.0377 µM and 0.0381 µM	0.0323 µM and 0.0358 µM and 0.0339 µM	0.0912 µM and 0.094 µM and 0.0661 µM	0.0578 µM and 0.062 µM and 0.052 µM
O=C(NO)C(O)C(O)C(O)C(O)CO (configuration not stated)	> 100 µM	> 100 µM	> 100 µM	> 100 µM	> 100 µM	> 100 µM	> 100 µM	> 100 µM	> 100 µM	> 100 µM	40 µM and > 100 µM	> 100 µM and 94.8 µM	> 100 µM	84.2 µM and 38.6 µM	> 100 µM and 38.1 µM	> 100 µM	> 100 µM	54.6 µM and 37.9 µM	> 100 µM	> 100 µM
O=[N+]([O-])O.[NH-]C1CCCCC1[NH-].[NH-]C1CCCCC1[NH-].[NH-]C1CCCCC1[NH-].[OH-].[OH-].[OH-].[Pt+4].[Pt+4].[Pt+4] (configuration not stated)	50 µM	> 85.7 µM	2.7 µM	16.5 µM		28.9 µM	19 µM	7.07 µM	> 50.2 µM	4.7 µM	1.35 µM	0.467 µM	0.199 µM	0.3 µM	0.0889 µM	2.2 µM	2.09 µM	0.241 µM	0.791 µM	0.359 µM
CCOC(=O)Cc1csc(NC(=O)C(OC(=O)c2ccc(N)cc2)c2ccccc2)n1 (configuration not stated)	> 100 µM	> 100 µM	> 100 µM	65.6 µM	> 100 µM	> 100 µM	> 100 µM	> 100 µM	> 100 µM		48.3 µM	41.7 µM	44.2 µM	25.9 µM	39.9 µM	56.6 µM	60 µM	32.7 µM	35.5 µM	
CCSc1nc(N)c2cnn(C)c2n1	> 100 µM	> 100 µM	> 100 µM	69.6 µM	> 100 µM	> 100 µM	92.1 µM	> 100 µM	85.1 µM	> 100 µM	40 µM	33 µM	33.6 µM	29.5 µM	58.4 µM	34.1 µM	25.4 µM	31.6 µM	33 µM	41.5 µM
CCOC(=O)C1=C(c2ccccc2)N(Cc2ccccc2)C2(O)C=CC(=O)C3C(=O)N(c4ccccc4)C(=O)C132 (configuration not stated)	3.92 µM	2.67 µM	3.34 µM	3.16 µM	4.83 µM	7.24 µM	3.26 µM	3.49 µM	8.08 µM	5.59 µM	1.65 µM	1.34 µM	1.79 µM	1.63 µM	1.93 µM	2.71 µM	1.77 µM	1.53 µM	2.56 µM	2.12 µM
CC1(C)CC2(C)OC2C2(C1)N=NC(=Nc1ccccc1)O2 (configuration not stated)	18.7 µM	2.62 µM	12.1 µM	16 µM	10.9 µM	8.31 µM	26.6 µM	31.5 µM	19.1 µM	29.9 µM	4.78 µM	1.06 µM	3.07 µM	3.76 µM	2.95 µM	3.44 µM	13.2 µM	11.3 µM	4.9 µM	5.93 µM
CCNC(=O)Oc1ccc(/C(=C(\C)c2ccc(Cl)cc2)c2ccc(OCCN3CCCCC3)cc2)cc1	23.7 µM	3.94 µM	3.9 µM	6.01 µM	10.9 µM	34.6 µM	13.4 µM	4.64 µM	20.9 µM	19.7 µM	10.9 µM	1.93 µM	1.78 µM	2.5 µM	3.16 µM	19.5 µM	3.53 µM	2.19 µM	6.04 µM	5.1 µM
CC(=O)N[C@@H]1CCC[C@H](C(=O)Nc2cc(-c3cnn4c3CC(C)(C)C4)c(Cl)cn2)C1	> 100 µM	> 100 µM	0.075 µM	0.0549 µM	> 100 µM	> 100 µM	0.237 µM	12.4 µM	0.431 µM	0.181 µM	0.0102 µM	< 0.01 µM	0.0216 µM	< 0.01 µM	< 0.0108 µM	< 0.01 µM	< 0.0149 µM	< 0.0115 µM	< 0.01 µM	< 0.0116 µM
Cc1ccc(OCCCCCCNCCO)c(C)c1	30.6 µM	29.7 µM	35.3 µM	25.7 µM	25.6 µM	30 µM	30.2 µM	30.8 µM	31.1 µM	35.4 µM	16.7 µM	15 µM	17 µM	12.1 µM	11.3 µM	16 µM	14.7 µM	14.9 µM	16 µM	15.5 µM
OCCCCC#Cc1ccccc1C#Cc1cnccn1	> 100 µM	> 100 µM	> 100 µM	> 100 µM	> 100 µM	> 100 µM	> 100 µM	96.9 µM	> 100 µM	> 100 µM	13.8 µM	32 µM	47.9 µM	21.2 µM	27.6 µM	47.7 µM	33 µM	27.4 µM	32.4 µM	40.8 µM
COc1cc(C(=O)N/N=C/c2cccc([N+](=O)[O-])c2)cc(OC)c1OC	> 100 µM	> 100 µM	9.86 µM	> 100 µM	8.1 µM	> 100 µM	59.5 µM	> 100 µM	> 100 µM	> 100 µM	7.1 µM	4.69 µM	2.75 µM	6.31 µM	2.89 µM	25.2 µM	7.95 µM	3.23 µM	5.57 µM	5.96 µM
C#Cc1ccc(-n2c(/C=C/c3cc(OC)c(OC)c(OC)c3)nc3ncccc3c2=O)cc1	> 100 µM	64 µM	70.5 µM	> 100 µM	15.1 µM	62.9 µM	> 100 µM	25.3 µM	98 µM	> 100 µM	5.36 µM	4.61 µM	9.74 µM	6.9 µM	3.92 µM	17.3 µM	27.5 µM	4.11 µM	5.33 µM	17.3 µM
O=c1[nH]c2cc(O)ccc2n2cc3c(F)cccc3c12	> 100 µM	> 100 µM	> 100 µM	> 100 µM	> 100 µM	> 100 µM	> 100 µM	> 100 µM	> 100 µM	> 100 µM	6.78 µM	0.748 µM	3.96 µM	1.29 µM	5.33 µM	> 100 µM	> 24.3 µM	0.451 µM	2.57 µM	3.86 µM
Cn1c(COC(=O)NCCN2CCOCC2)nc2c(N3CCOCC3)nc(-c3ccccc3)nc21	2.68 µM	1.1 µM	3.02 µM	2.81 µM	1.66 µM	2.88 µM	3.41 µM	2.77 µM	2.95 µM	4.1 µM	1.25 µM	0.256 µM	1.56 µM	1.36 µM	0.35 µM	1.48 µM	1.62 µM	1.25 µM	1.38 µM	1.84 µM
C=C(C)[C@@H]1CCC[C@]2(C(=O)O)CC[C@]3(C)[C@@H](CC[C@@H]4[C@@]5(C)C/C(=C/c6ccncc6)C(=O)C(C)(C)[C@@H]5CC[C@]43C)[C@@H]12	45.1 µM	3.5 µM	23.2 µM	5.68 µM	9.5 µM	29.4 µM	4.29 µM	4.45 µM	91 µM	12.9 µM	4.03 µM	1.84 µM	3.46 µM	2.05 µM	2.69 µM	3.6 µM	1.94 µM	1.87 µM	3.81 µM	3.33 µM
Cc1cc(N)c2ccccc2[n+]1CCCCCCCCCC[n+]1c(C)cc(N)c2ccccc21	2.59 µM and 20.2 µM	2.29 µM			1.51 µM and 5.47 µM and 4.62 µM	7.63 µM and 15.5 µM and 24.3 µM	4.52 µM and 2.76 µM and 9.8 µM	0.516 µM and 1.55 µM	3.49 µM and 10.3 µM and 32.5 µM	> 12.4 µM and 3.96 µM and 3.89 µM	0.23 µM		0.163 µM and 1.35 µM	0.189 µM	0.223 µM and 1.55 µM	0.684 µM and 3.13 µM	0.253 µM	0.121 µM		0.236 µM and 0.484 µM
O=c1c2cc(F)ccc2sc2c(NCCCN3CCCC3)nc3ccccc3c12	3.94 µM	3.28 µM	3.37 µM	3.77 µM		3.65 µM	3.25 µM			3.69 µM	2.07 µM	1.73 µM	1.77 µM	1.87 µM		1.99 µM	1.67 µM			1.89 µM
O=C(CC(C(=O)O)N1CCOCC1)c1ccccc1 (configuration not stated)	69.4 µM	33.6 µM	34 µM	29.5 µM	32.1 µM	30.1 µM		42.1 µM	44.6 µM	40.6 µM										
COc1ncnc2c(-c3ccco3)cn(COCc3ccccc3)c12	> 50 µM	> 50 µM	> 50 µM	> 50 µM	> 50 µM	> 50 µM	> 50 µM		> 50 µM	> 50 µM	> 50 µM	> 50 µM	> 50 µM	8.2 µM	> 50 µM	17.8 µM	> 50 µM		> 50 µM	> 50 µM
C#Cc1cccc(Nc2ncnc3ccc(-c4cncc(NS(C)(=O)=O)c4)cc23)c1	12.8 µM	2.86 µM	9.13 µM	5.69 µM	6.28 µM		11.8 µM	13.6 µM	11.5 µM	10.8 µM	2.07 µM	1.26 µM	1.11 µM	1.66 µM	1.86 µM		2.67 µM	3.46 µM	1.92 µM	2.36 µM
